Legend:
MKN-45 cells = test: Cell cycle distribution assay; assay type: cell-based, Human; settings: 48 h; compared with the control group; n = 3
Method: According to the cell cycle detection kit (Keygen) instructions, MKN-45 cells were collected and seeded in a six-well culture plate at the concentration 2 × 10^6/mL overnight. Then, the cells were washed with PBS and treated with peptide CM 7 at the indicated concentration for 48 h. The experiment was performed in triplicate. A MACS Quant flow cytometer (Miltenyi Biotec GmbH, Bergisch Gladbach, Germany) was used to detect the cell cycle profile, and FlowJo software version 7.6 (FlowJo LLC, Ashland, USA) was used to analyze the data.

[1] = test system: c-Met and its downstream signaling molecules in U87 cells; test: Western blot of c-Met signaling, U87 (HGF-induced); assay type: cell-based, human; settings: 24 h
Method: (§1) Western blot analysis was performed using an extraction buffer as described. MKN-45, MKN-28 and U87 cells were cultured in serum-free medium overnight, then treated with the indicated dose of peptide CM 7 for 24 h at 37 °C after stimulated without or with HGF for 15 min. Next, total cell lysates were separated by 12% SDS-polyacrylamide gel (SDS-PAGE) and transferred to polyvinylidene difluoride (PVDF) membranes. The PVDF membranes were probed with following primary antibodies: anti-phospho-Met (Tyr1234/1235, (Cell Signaling Technology, Beverly, MA, USA), anti-Met (Affinity, USA), anti-phospho-AKT (Ser473, (Affinity, USA)), anti-AKT (Affinity, USA), anti-phospho-Erk1/2 (Thr202/Tyr204, (Affinity, USA)), anti-Erk1/2 (Affinity, USA), anti-E-cadherin (WanleiBio, Shengyang, China), and anti-GAPDH (Multi Sciences, Hangzhou, China). Then, horseradish-peroxidase-conjugated anti-rabbit IgG was used as a second antibody. The immunoreactive proteins were exposed using an enhanced chemiluminescence detection reagent (WanleiBio, Shengyang, China). After sacrificing the mice and isolating the tumor tissue, Western blot was performed as previously described.

[2] = test system: c-Met and its downstream signaling molecules in MKN-45 xenografts; test: Western blot of c-Met signaling in xenograft tumors; assay type: in vivo, Human; settings: n = 3
Method: as §1

[3] = Body weight / tolerability in tumor-bearing mice; assay type: in vivo, Balb/c nude mice; settings: each peptide group (5, 10, 20 mg/kg s.c. twice a day, 28 days)
Method: Four-to-five-week-old female Balb/c nude mice, housed in specific pathogen-free conditions, were used to evaluate antitumor activity in vivo. All animal studies were performed according to the institutional ethical guidelines for animal care.
MKN-45 cells at a density of 5 × 10^6 in 200 μL were injected subcutaneously into the flank of the mice. CM 7 (5, 10, or 20 mg/kg) was injected subcutaneously for each group twice a day for four weeks. As a positive control, Crizotinib (50 mg/kg) was given to tumor-bearing mice by gavage once a day for a total of 28 days. The tumor volume was measured with calipers in two dimensions: tumor volume = 1/2 × a × b^2, where a is the length of the tumor, and b is the width of the tumor. All of the mice were sacrificed on day 42, and the tumor tissue was isolated and weighed.
Figure S1: The chemical structure, molecular mass, and purity of peptide FITC-CM 7. […] (C) The purity of peptide FITC-CM 7 was determined by high-performance liquid chromatography (HPLC) to be 97.3%. […] (C) The purity of peptide FITC-CM 7 was determined by HPLC to be 96.7%. Figure S3: The mean body weight of tumor-bearing mice treated daily for four weeks with vehicle (0.2% DMSO) or Crizotinib (50 mg/kg) by gavage, and the tested peptide CM 7 or vehicle (PBS) that was subcutaneously injected twice a day for four weeks was measured every other day during the study. […]

DQIIANN [CM 7, Novel peptide DQIIANN targeting the tyrosine kinase receptor c-Met]
Cell cycle arrest (MKN-45 cells): significantly arrested in the S phase | Expression of E-cadherin [1]: increase the expression of E-cadherin | Phosphorylation of c-Met, Akt and Erk ([1]; HGF 15 min, dose-dependent): effectively inhibit | Intratumoral expression of E-cadherin [2]: significantly increased | Intratumoral phosphorylation of c-Met, Akt or Erk [2]: markedly inhibited | Weight loss of mice [3]: no significant weight loss | Tolerability / toxicity ([3]; from body weight): well tolerated and slightly or nontoxic
